Data published in PMC9684503 (Communications Biology, 2022).
“And” between values parts separate entries of the source, which are not always exact repeats. Equal entries are not always repeated. Structures can show the parent of a compound that is named as a salt.

Legend:
rat VMAT2 Q143A = rat VMAT2 Q143A (Rattus norvegicus, UniProt Q01827, Q143A); assay: FFN206 uptake assay, VMAT2 mutant
Method: (§1) For activity assays, [^3H]-DTBZ and [^3H]-SMT binding and competition assays (see section below), several VMAT2 mutants were prepared. […] In addition, a selection of rVMAT2 mutants carrying mutations designed from binding modes identified by docking and MD-simulation was prepared in a pcDNA3.1 rVMAT2-Strep tag II plasmid.

VMAT2 [1] = biological target: T1, VMAT2 (Rattus norvegicus, UniProt Q01827); assay: [3H]-DTBZ competition assay in Hek293 cells expressing VMAT2;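 for all read-outs here: HEK293 cells transfected with VMAT2, pretreated 30 min with compound, then given 5 nM [3H]-DTBZ for 20 min at 37 °C, bound label read by scintillation counting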; conditions: for effect on [3H]-DTBZ binding compared with DMSO control (one-way ANOVA, p < 0.001): 50 μM compound; for [3H]-DTBZ binding relative to no compound (=1), replicate samples: Fig. 3b source data
T1 sequence (Q01827 whole entry): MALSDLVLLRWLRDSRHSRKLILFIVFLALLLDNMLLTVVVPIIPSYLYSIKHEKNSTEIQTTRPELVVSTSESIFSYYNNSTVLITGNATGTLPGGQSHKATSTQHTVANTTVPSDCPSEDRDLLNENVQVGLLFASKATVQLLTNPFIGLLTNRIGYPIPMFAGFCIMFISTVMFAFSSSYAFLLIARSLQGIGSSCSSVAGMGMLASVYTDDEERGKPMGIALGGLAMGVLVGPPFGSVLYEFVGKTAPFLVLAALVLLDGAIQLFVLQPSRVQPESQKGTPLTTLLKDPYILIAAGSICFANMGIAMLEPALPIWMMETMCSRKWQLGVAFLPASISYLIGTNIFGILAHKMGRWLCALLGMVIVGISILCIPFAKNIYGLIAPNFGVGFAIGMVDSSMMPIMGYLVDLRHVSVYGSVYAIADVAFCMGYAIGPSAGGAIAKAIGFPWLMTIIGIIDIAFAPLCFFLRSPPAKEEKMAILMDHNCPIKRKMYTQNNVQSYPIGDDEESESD
Method: (§2) We preincubated cells expressing VMAT2 with 50 μM compounds and measured [^3H]-DTBZ binding (5 nM) to the sample (Fig. 3a). […] Hek293 cells were grown and transfected with pcDNA3.1 VMAT2-His as described above. Two days after transfection, cells were harvested, washed and transferred to 96 well MultiScreen FB filter plates (Millipore). […] Cells were washed 3 times with ice cold PBS and 50 µl Ultima Gold LLL (PerkinElmer) was added to each well. […] After a 20 min incubation at 37 °C, cells were washed and [^3H] scintillation counting was performed as described above.

human VMAT2 = biological target: T2, human VMAT2 (Homo sapiens, UniProt Q05940); assay: FFN206 uptake assay in transfected Hek293 cells; format: cell-based; conditions: Table S1, substrate uptake assays in transfected Hek293 cells
T2 construct: expressed in transfected cells; host or cells: Hek293 cells, transient
T2 sequence (Q05940 whole entry): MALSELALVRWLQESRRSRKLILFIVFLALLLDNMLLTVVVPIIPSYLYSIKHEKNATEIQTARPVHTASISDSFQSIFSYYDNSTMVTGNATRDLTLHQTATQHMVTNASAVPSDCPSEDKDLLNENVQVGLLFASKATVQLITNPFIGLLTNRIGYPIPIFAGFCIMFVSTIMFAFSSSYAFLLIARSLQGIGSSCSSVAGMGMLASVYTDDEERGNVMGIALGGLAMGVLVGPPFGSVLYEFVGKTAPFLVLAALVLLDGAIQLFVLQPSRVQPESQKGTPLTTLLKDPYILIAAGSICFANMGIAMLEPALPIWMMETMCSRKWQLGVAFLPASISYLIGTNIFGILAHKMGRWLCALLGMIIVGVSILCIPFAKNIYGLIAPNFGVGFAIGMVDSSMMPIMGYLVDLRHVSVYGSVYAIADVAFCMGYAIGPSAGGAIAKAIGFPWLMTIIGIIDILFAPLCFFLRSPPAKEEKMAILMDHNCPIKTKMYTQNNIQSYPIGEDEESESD

rat VMAT2 = rat VMAT2 (Rattus norvegicus, UniProt Q01827); assay: FFN206 uptake assay in transfected Hek293 cells; conditions: for VMAT2-specific FFN206 uptake relative to DMSO (=1), replicate samples: Fig. 2a source data, 25 μM compound
Chain of rat VMAT2 (Q01827 whole entry): as the sequence (Q01827 whole entry) above

rat VMAT2 P314A = rat VMAT2 P314A (Rattus norvegicus, UniProt Q01827, P314A); assay: FFN206 uptake assay, VMAT2 mutant
Chain of rat VMAT2 P314A (Q01827 whole entry P314A): as the sequence (Q01827 whole entry) above, with P314A counted along it
Method: as §1

VMAT2 [2] = biological target: T1, VMAT2; conditions: hek293 cells, 50 µM
Method: as §2

human VMAT1 = biological target: T3, human VMAT1 (Homo sapiens, UniProt P54219); assay: FFN206 uptake assay in transfected Hek293 cells; format: cell-based; conditions: Table S1, substrate uptake assays in transfected Hek293 cells
T3 construct: expressed in transfected cells; host or cells: Hek293 cells, transient
T3 sequence (P54219 1-525): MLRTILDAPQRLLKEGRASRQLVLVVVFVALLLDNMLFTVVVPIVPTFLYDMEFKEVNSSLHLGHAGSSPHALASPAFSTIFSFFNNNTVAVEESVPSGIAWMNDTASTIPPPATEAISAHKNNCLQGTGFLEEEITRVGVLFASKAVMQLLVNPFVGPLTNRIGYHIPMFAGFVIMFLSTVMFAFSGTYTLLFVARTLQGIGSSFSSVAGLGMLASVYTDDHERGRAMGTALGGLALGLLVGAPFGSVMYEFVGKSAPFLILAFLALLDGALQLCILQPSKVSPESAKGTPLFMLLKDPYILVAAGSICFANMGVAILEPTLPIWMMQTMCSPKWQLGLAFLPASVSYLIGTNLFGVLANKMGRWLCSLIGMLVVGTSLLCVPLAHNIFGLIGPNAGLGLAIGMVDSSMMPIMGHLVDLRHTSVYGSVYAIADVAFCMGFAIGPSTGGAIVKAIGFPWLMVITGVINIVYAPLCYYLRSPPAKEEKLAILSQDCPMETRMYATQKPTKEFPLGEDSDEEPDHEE

rat VMAT2-His = biological target: T4, rat VMAT2-His (Rattus norvegicus, UniProt Q01827); assay: Differential scanning fluorimetry (DSF) with CPM dye: change of melting temperature of purified VMAT2; format: binding; conditions: for ΔTm: Table 1, DSF screening, mean ± SD of triplicates; for ΔTm at 12 µM / ΔTm at 37 µM / ΔTm at 10 µM / ΔTm at 30 µM / ΔTm at 90 µM / ΔTm at 270 µM / ΔTm at 11 µM / ΔTm at 33 µM: Table S2 dose response, read-out: ΔTm; for ΔTm at 12 µM: compound 0,12 µM; for ΔTm at 37 µM: compound 0,37 µM; for ΔTm at 10 µM: compound 10 µM; for ΔTm at 30 µM: compound 30 µM; for ΔTm at 90 µM: compound 90 µM; for ΔTm at 270 µM: compound 270 µM; for ΔTm at 11 µM: compound 1,11 µM; for ΔTm at 33 µM: compound 3,33 µM
T4 construct: The ORF of rat VMAT2 was subcloned into a pFastBac vector; His; made in house; host or cells: Sf9 insect cells (baculovirus)
T4 sequence (Q01827 whole entry): as the sequence (Q01827 whole entry) above
Outline: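 Rat VMAT2-His from Sf9 baculovirus cells, purified by IMAC and SEC in DDM/CHS micelles, was screened by CPM-dye DSF over a 25–95 °C ramp at 2 °C/min. Tm was taken from the second derivative of the melting curve. Hits were validated in triplicate at 200 μM, with ΔTm > 5× SD as the cutoff.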

rat VMAT2 Y434A = rat VMAT2 Y434A (Rattus norvegicus, UniProt Q01827, Y434A); assay: FFN206 uptake assay, VMAT2 mutant
Chain of rat VMAT2 Y434A (Q01827 whole entry Y434A): as the sequence (Q01827 whole entry) above, with Y434A counted along it
Method: as §1

[3] = compound 100.0000 (μM per methods)
[4] = Fig. 2b/2c source data, compound 0.0152 μM
[5] = Fig. 2b/2c source data, compound 0.1372 μM
[6] = Fig. 2b/2c source data, compound 0.4115 μM
[7] = Fig. 2b/2c source data, compound 1.2346 μM
[8] = Fig. 2b/2c source data, compound 3.7037 μM
[9] = Fig. 2b/2c source data, compound 11.1111 μM
[10] = Fig. 2b/2c source data, compound 100.0000 μM

Chain of rat VMAT2 Q143A (Q01827 whole entry Q143A): as the sequence (Q01827 whole entry) above, with Q143A counted along it

IC50 (rat VMAT2 Q143A)	effect on [3H]-DTBZ binding compared with DMSO control (one-way ANOVA, p < 0.001) (VMAT2 [1])	[3H]-DTBZ binding relative to no compound (=1), replicate samples (VMAT2 [1]; compound 0.0017)	[3H]-DTBZ binding relative to no compound (=1), replicate samples (VMAT2 [1]; compound 0.0051)	[3H]-DTBZ binding relative to no compound (=1), replicate samples (VMAT2 [1]; compound 0.0152)	[3H]-DTBZ binding relative to no compound (=1), replicate samples (VMAT2 [1]; compound 0.0457)	[3H]-DTBZ binding relative to no compound (=1), replicate samples (VMAT2 [1]; compound 0.1372)	IC50 (human VMAT2)	IC50 (rat VMAT2)	Structure (SMILES)	[3H]-DTBZ binding relative to no compound (=1), replicate samples (VMAT2 [1]; compound 0.4115)	[3H]-DTBZ binding relative to no compound (=1), replicate samples (VMAT2 [1]; compound 1.2346)	[3H]-DTBZ binding relative to no compound (=1), replicate samples (VMAT2 [1]; compound 3.7037)	[3H]-DTBZ binding relative to no compound (=1), replicate samples (VMAT2 [1]; compound 11.1111)	[3H]-DTBZ binding relative to no compound (=1), replicate samples (VMAT2 [1]; compound 33.3333)	[3H]-DTBZ binding relative to no compound (=1), replicate samples (VMAT2 [1]; [3])	VMAT2-specific FFN206 uptake relative to DMSO (=1), replicate samples (rat VMAT2)	FFN206 uptake relative to no compound (=1), replicate samples (rat VMAT2; [4])	FFN206 uptake relative to no compound (=1), replicate samples (rat VMAT2; [5])	FFN206 uptake relative to no compound (=1), replicate samples (rat VMAT2; [6])	FFN206 uptake relative to no compound (=1), replicate samples (rat VMAT2; [7])	also measured
354 ± 83 nM	statistically significantly effect	0.8751 and 1.064 and 1.013 and 0.8455	0.8936 and 1.069 and 1.018 and 0.8322	0.7303 and 1.42 and 1.076 and 0.8096	0.8393 and 0.4876 and 0.8108 and 0.8579	1.015 and 0.924 and 0.9381 and 0.7974	23 nM	39 ± 17 nM	O=C1Cc2cc(CCN3CCN(c4nsc5ccccc45)CC3)c(Cl)cc2N1 [Ziprasidone, Ziprasidone Hydrochloride]	0.6748 and 0.8924 and 0.7988 and 0.4363	0.4427 and 0.7246 and 0.4654 and 0.6729	0.6274 and 0.382 and 0.3472 and 0.5985	0.6424 and 0.4197 and 0.5023 and 0.5651	0.4189 and 0.1764 and 0.1269 and 0.541	0.3228 and 0.1927 and 0.2304 and 0.2985	-0.0048 and -0.08665 and -0.06177 and 0.05752	0.7804 and 0.7848 and 0.755 and 0.7991	0.4886 and 0.4837 and 0.4034 and 0.5734	0.4342 and 0.3743 and 0.3683 and 0.4657	0.3953 and 0.3737 and 0.3153 and 0.4191	fold increased IC50 vs wild-type (rat VMAT2 Q143A; Q143A): ~10 fold; FFN206 uptake relative to no compound (=1), replicate samples (rat VMAT2; [8]): 0.3802 and 0.3604 and 0.2907 and 0.3691; FFN206 uptake relative to no compound (=1), replicate samples (rat VMAT2; [9]): 0.4118 and 0.377 and 0.294 and 0.3618; FFN206 uptake relative to no compound (=1), replicate samples (rat VMAT2; [10]): 0.3782 and 0.3789 and 0.3057 and 0.3727; IC50 (rat VMAT2 P314A): 132 ± 8 nM; fold increased IC50 vs wild-type (rat VMAT2 P314A; P314A): approx. 3 fold; activity (VMAT2 [2]): 36.5 ± 7.71%; IC50 (human VMAT1): 35 nM; ΔTm (rat VMAT2-His): 2.69 ± 0.12 oC; ΔTm at 12 µM (rat VMAT2-His): 0.41 °C; ΔTm at 37 µM (rat VMAT2-His): 0.68 °C; ΔTm at 10 µM (rat VMAT2-His): 0.6 °C; ΔTm at 30 µM (rat VMAT2-His): 0.71 °C; ΔTm at 90 µM (rat VMAT2-His): 1.13 °C; ΔTm at 270 µM (rat VMAT2-His): 1.82 °C; ΔTm at 11 µM (rat VMAT2-His): 0.69 °C; ΔTm at 33 µM (rat VMAT2-His): 0.58 °C
148 ± 33 nM	statistically significantly effect	0.6032 and 1.156 and 0.8878 and 0.838	0.6168 and 0.8711 and 1.077 and 0.9012	0.7563 and 1.108 and 1.007	0.5988 and 0.6867 and 0.7774 and 0.6452	0.4074 and 0.4854 and 0.3736 and 0.3232	35 ± 16 nM	53 ± 28 nM	OCc1cc(C(O)CNCCCCCCOCCCCc2ccccc2)ccc1O (centres unmarked) [Salmeterol]	0.02476 and 0.03862 and 0.09845 and 0.04206	0.01432 and 0.02317 and 0.00733 and 0.04172	0.02156 and 0.02614 and 0.01787 and 0.1343	-0.04565 and 0.05011 and -0.00482 and -0.01021	-0.01836 and -0.0105 and -0.00518 and -0.00848	0.02729 and -0.01624 and -0.00322 and -0.00727	0.01652 and -0.1153 and -0.05311 and -0.0161	0.8683 and 0.9316 and 0.8545 and 0.8755 and 0.7872 and 0.8834 and 0.9116 and 0.9363	0.4384 and 0.5181 and 0.4428 and 0.5409 and 0.2594 and 0.3377 and 0.3056 and 0.4141	0.2986 and 0.3445 and 0.2962 and 0.3132 and 0.1258 and 0.1847 and 0.149 and 0.1946	0.2192 and 0.2619 and 0.2463 and 0.2625 and -0.00094 and 0.06663 and 0.05805 and 0.07997	IC50 (rat VMAT2 Y434A): 126 ± 87 nM; FFN206 uptake relative to no compound (=1), replicate samples (rat VMAT2; [8]): 0.2883 and 0.2538 and 0.257 and 0.1826 and 0.05594 and 0.1039 and 0.07279 and 0.105; FFN206 uptake relative to no compound (=1), replicate samples (rat VMAT2; [9]): 0.2315 and 0.2175 and 0.2018 and 0.1642 and 0.02429 and 0.09314 and 0.05353 and 0.1229; FFN206 uptake relative to no compound (=1), replicate samples (rat VMAT2; [10]): 0.2045 and 0.2463 and 0.2058 and 0.2286 and -0.0325 and 0.06428 and 0.00994 and 0.07; FFN206 uptake relative to no compound (=1), replicate samples (rat VMAT2; Fig. 2c source data, compound 0.0017 μM): 0.9528 and 0.9756 and 1.008 and 0.9844; IC50 (rat VMAT2 P314A): 234 ± 65 nM; activity (VMAT2 [2]): 0.37 ± 2.83%; IC50 (human VMAT1): 23 ± 2 nM; ΔTm (rat VMAT2-His): 9.71 ± 0.22 oC; ΔTm at 12 µM (rat VMAT2-His): 5.78 °C; ΔTm at 37 µM (rat VMAT2-His): 6.25 °C; ΔTm at 10 µM (rat VMAT2-His): 7.48 °C; ΔTm at 30 µM (rat VMAT2-His): 7.9 °C; ΔTm at 90 µM (rat VMAT2-His): 8.7 °C; ΔTm at 270 µM (rat VMAT2-His): 10.5 °C; ΔTm at 11 µM (rat VMAT2-His): 6.55 °C; ΔTm at 33 µM (rat VMAT2-His): 7.04 °C
